Residues, ends and D or L forms follow the SMILES beside them. *: point of attachment. Cbz = O=C(OCc1ccccc1)*; CH2Cl = ClC*

T1 sequence (Q9XTA2 whole entry): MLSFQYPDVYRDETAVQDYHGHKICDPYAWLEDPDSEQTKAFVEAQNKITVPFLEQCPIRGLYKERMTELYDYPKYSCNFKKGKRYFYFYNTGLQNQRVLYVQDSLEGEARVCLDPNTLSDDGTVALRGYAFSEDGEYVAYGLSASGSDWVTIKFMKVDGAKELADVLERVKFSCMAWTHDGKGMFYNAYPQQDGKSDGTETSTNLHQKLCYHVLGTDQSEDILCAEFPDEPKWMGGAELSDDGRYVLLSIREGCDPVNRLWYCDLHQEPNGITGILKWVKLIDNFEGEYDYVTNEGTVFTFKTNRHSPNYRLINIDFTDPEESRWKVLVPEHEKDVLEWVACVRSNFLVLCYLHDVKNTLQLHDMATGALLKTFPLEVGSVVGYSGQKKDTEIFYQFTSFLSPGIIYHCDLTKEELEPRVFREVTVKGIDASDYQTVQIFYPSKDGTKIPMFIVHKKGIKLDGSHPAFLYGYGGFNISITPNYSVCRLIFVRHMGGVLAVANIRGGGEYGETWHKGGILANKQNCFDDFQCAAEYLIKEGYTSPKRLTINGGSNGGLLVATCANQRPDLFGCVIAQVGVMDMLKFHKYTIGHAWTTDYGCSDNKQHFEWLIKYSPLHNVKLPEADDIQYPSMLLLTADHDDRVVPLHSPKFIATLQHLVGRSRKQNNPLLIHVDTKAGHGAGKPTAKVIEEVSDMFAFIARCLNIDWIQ

The first assay concerns the target T1, prolyl endopeptidase (Bos taurus, UniProt Q9XTA2).
T1 construct: prolyl endopeptidase which was purified from bovine brain; from tissue; host or cells: bovine brain (purified by the method of J. Biochem., 94, 1179 (1983))
In words: Prolyl Endopeptidase Inhibitory Activity in Vitro. It counts as biochemical. As to conditions: prolyl endopeptidase purified from bovine brain; substrate N-benzyloxycarbonyl-glycyl-prolyl-p-nitroanilide; pH 7.5, 37° C., 15 mins preincubation, 405 nm; read-out: Concentration for 50% inhibition IC50. As to the method: Inhibitory activity of prolyl endopeptidase was measured by the following test system.
A mixed solution of 20 mM tris-HCl buffer (pH 7.5; 935 μl; containing 10 mM EDTA and 10 mM mercaptoethanol), a solution of a compound of the present invention in DMSO (10 μl) and a solution of prolyl endopeptidase which was purified from bovine brain (0.13 unit; prepared by the method described in J. Biochem., 94, 1179 (1983)) in tris-HCl buffer (15 μl) was preincubated for 15 mins at 37° C.
To the solution, 5 mM of N-benzyloxycarbonyl-glycyl-prolyl-p-nitroanilide (40 μl) in a mixture of 40% dioxane-60% water was added. The solution was incubated for 1 min at the same temperature.
Optical absorption (a1) at 405 nm of the solution, and optical absorption (a2) at 405 nm of the solution after more 30 mins' incubation at 37° C. were measured.
Optical absorptions (b1 and b2) of the solutions using DMSO instead of the solution of the compound of the present invention were also measured.
Inhibitory ratio was calculated by the following expression and IC50 (required concentration for 50% inhibition) was obtained (See Protein, Nucleic acid and Enzyme 25(6), 513, 1980). [formula]
Consider `O=C[C@@H]1CCCN1C(=O)CCC(=O)NCc1ccco1` [2 (dd), N-[3-[N-(2-furylmethyl)-carbamoyl]propanoyl]-L-prolinal], for which the IC50 is 790 nM.
The same measure, in the same setting: the value for `O=C[C@@H]1CCCN1C(=O)[C@@H]1CCC[C@H]1C(=O)NCc1ccccc1` [1 (x), N-[(1R,2R)-2-(N-benzylcarbamoyl)cyclopentane-1-carbonyl]-L-prolinal] was 14 nM; that for `O=C[C@@H]1CCCN1C(=O)CCC(=O)NCCCCCc1ccccc1` [1 (h), N-[3-[N-(5-phenylpentyl)carbamoyl]propanol]-L-prolinal] was 70 nM.
Same read-out and setting: the value for `O=C[C@@H]1CCCN1C(=O)CCC(=O)NCc1ccccc1Cl` [2 (e), N-[3-[N-(2-chlorobenzyl)-carbamoyl]propanoyl]-L-prolinal] was 160 nM.
With `Cc1ccc(CNC(=O)CCC(=O)N2CCC[C@H]2C=O)cc1` [2 (a), N-[3-[N-(4-methylbenzyl)-carbamoyl]propanoyl]-L-prolinal], the IC50 was 23 nM.
Same read-out and setting: the value for `CN(Cc1ccccc1)C(=O)C=CC(=O)N1CCC[C@H]1C=O` [1 (s), N-[3-(N-benzyl-N-methylcarbamoyl)acryloyl]-L-prolinal] was 1900 nM; that for `O=C[C@@H]1CCCN1C(=O)CCC(=O)NCc1ccccc1` [1 (a), N-[3-(N-benzylcarbamoyl)propanoyl)-L-prolinal] was 230 nM; that for `O=C[C@@H]1CCCN1C(=O)CCC(=O)NCC(c1ccccc1)c1ccccc1` [1 (bb), N-[3-[N-(2,2-diphenylethyl)carbamoyl]propanoyl]-L-prolinal] was 1200 nM.
`O=C[C@@H]1CCCN1C(=O)CCC(=O)NCCc1ccccc1` [Example 1, N-[3-[N-(2-phenylethyl)carbamoyl]propanoyl]-L-prolinal]: the IC50 stood at 130 nM.
For `Cc1ccc(CN(C(=O)CCC(=O)N2CCC[C@H]2C=O)c2ccccc2)cc1` [2 (n), N-[3-[N-(4-methylphenyl-methyl)-N-phenyl-carbamoyl]propanoyl]-L-prolinal], the IC50 was 1.9 nM.
The same measure, in the same setting: with `O=C[C@@H]1CCCN1C(=O)CCC(=O)NCc1cccc2ccccc12` [2 (y), N-[3-[N-(1-naphthyl-methyl)carbamoyl]propanoyl]-L-prolinal] the figure was 43 nM.

For the next assay, the system named is prolyl endopeptidase.
Test: not given
As to conditions: See J. Neurochem., 41, 69 (1983); cited from earlier work.
As for `O=C(NCC(=O)N1CCC[C@H]1C(=O)CCl)OCc1ccccc1` [N-benzyloxycarbonyl-glycyl-L-proplyl-chloromethane] (Cbz-Gly-Pro-CH2Cl), the “inhibition of prolyl endopeptidase (in words)” value is “strongly inhibit”.

The values are drawn from patent US5254550A, “Prolinal derivatives and pharmaceutical compositions thereof” (Ono Pharmaceutical Co., Ltd., priority 1986, dated 1993).
